The values below come from US7196108B2, “Bicyclic heterocycles for the treatment of diabetes and other diseases” (Incyte San Diego Inc., priority 2002, dated 2007).

SMILES strings stand for the structures. “Also recorded” adds a separate entry of the source.

One data set concerns KKA^y mice. The experiment in a line: Oral administration in the treatment of type 2 diabetes in KKA^y mice (serum glucose and triglycerides). To be noted: 15 mg/kg oral gavage once daily in sesame oil, days 7 and/or 14, vs control; for serum glucose level: FIG. 2; for serum triglyceride level: FIG. 3. The data set is classed as in vivo, mouse. As to the method: These models include among others, db/db mice, ob/ob mouse, and KKA^y mice. […] A procedure for such experiments was described in detail in Iwatsuka, et al., 1970 General Survey of Diabetic Features of Yellow KK Mice. Endocrinol. Japon. 17: 23–35, incorporated herein by reference. The testing of the compounds of the invention was conducted as described in Example 22. The animals were treated with a single daily oral dose of 15 mg/kg of the test compound suspended in sesame oil (dose volume of 3–5 ml/kg). At the end of one and two weeks of treatment the animals were bled from the tail vein and their serum glucose and triglycerides and/or cholesterol was measured in duplicate.
Experimental Procedure: Six to eight week-old male KKA^y mice (available from Jackson Labs of Bar Harbour, Me.) were housed in a fixed 12–12-hr artificial light-dark cycle, and maintained on a standard rodent diet provided ad libitum. Animals were allowed two days to acclimate in this experimental environment prior to the initiation of the study. Prior to initiation of treatment, the animals were bled from the tail vein (100–200 μL of whole blood) and serum levels of glucose and triglycerides were measured in duplicate (Trinder kits; Sigma, St.Louis, Mo.). Based on these initial measures, animals were sorted into groups with approximately the same average serum triglyceride levels. Once sorted, the animals were housed one per cage and provided rodent diet ad libitum.
Treatment group A (n=6/group): • 1) KKA^y control (sesame oil) • 2) Compound 1 (15 mg/kg)
Treatment group B (n=6/group): • 1) KKA^y control (sesame oil) • 2) Compound 6 (15 mg/kg)
Treatment group C (n=6/group): • 1) KKA^y control (sesame oil) • 2) Compound 9 (15 mg/kg)
All compounds were suspended in sesame oil, and administered to animals in a volume of 3 ml/kg/dose. All treatments were administered by oral gavage once daily.
To monitor the effect of the tested Compounds, animals were bled at the end of the dark cycle on days 7 and/or 14 of the treatment period. Serum glucose and triglyceride levels were measured in duplicate. The blood was kept at room temperature to allow coagulation, after which the serum was separated and assayed for glucose and triglyceride levels.

For data set [1] the following is noted: disclosed in U.S. Pat. No. 6,515,003; cited from earlier work.
The next data set concerns 3T3-L1 pre-adipocytes. The conditions noted are these: disclosed in U.S. Pat. No. 6,515,003; cited from earlier work.

In the case of `CC(C)Cc1cc(-c2cc(/C=C3\SC(=O)NC3=O)ccc2OC(F)(F)F)c2c(c1)C(C)(C)CO2` [Compound 1, 5-[3-(5-Isobutyl-3,3-dimethyl-2,3-dihydro-benzofuran-7-yl)-4-trifluoromethoxy-benzylidene]-thiazolidine-2,4-dione], the melting point lay in the range of 142 to 146 °C. In the data set with KKA^y mice, the serum glucose level result was “significantly lowered; also recorded: reduction” and the serum triglyceride level entry is “lowered; also recorded: reduction”.
As to `COc1c(F)cc(/C=C2\SC(=O)NC2=O)c(F)c1-c1cc(CC(C)C)cc2c1OCC2(C)C` [Compound 6, 5-[2,5-Difluoro-3-(5-isobutyl-3,3-dimethyl-2,3-dihydro-benzofuran-7-yl)-4-methoxy-benzylidene]-thiazolidine-2,4-dione], in the data set with KKA^y mice, the serum glucose level entry was “significantly lowered; also recorded: reduction” and the serum triglyceride level entry is on record as “lowered; also recorded: reduction”.
For `CC1(C)COc2c(-c3cc(/C=C4\SC(=O)NC4=O)ccc3OC(F)(F)F)cc(-c3ccoc3)cc21` [Compound 9, 5-[3-(5-Furan-3-yl-3,3-dimethyl-2,3-dihydro-benzofuran-7-yl)-4-trifluoromethoxy-benzylidene]-thiazolidine-2,4-dione], in that order: “significantly lowered; also recorded: reduction” and “lowered; also recorded: reduction”.
For `Cc1cc2c(cc1-c1cc(/C=C3\SC(=O)NC3=O)ccc1OC(F)(F)F)C(C)(C)CCC2(C)C` [Compound 20, 5-[3-(3,5,5,8,8-Pentamethyl-5,6,7,8-tetrahydro-naphthalen-2-yl)-4-trifluoromethoxy-benzylidene]-thiazolidine-2,4-dione], the “activity for the treatment of diabetes” value in data set [1] is given as “active”. In the data set with 3T3-L1 pre-adipocytes, the adipocyte differentiation activity result is “active”.

In general, melting point refers to the temperature of the solid-liquid transition.
